# Data reported in patent publication US20190112357A1, “PREVENTION OF PROTEIN DISULFIDE BOND REDUCTION” (MedImmune, LLC, priority 2016, published 2019).
# What was measured:
# Format in all cases: physicochemical
# [1] = Antibody reduction potential assay (Vacuum/GX); conditions: EDTA 9.5, 19, 38 mM or Cystine 4 and 8 mM
# Method: Bioreactor samples (1 mL) were obtained daily and centrifuged at 3000-4000 RPM and the supernatant was frozen immediately at −80° C. On the day prior to the assay, the samples were removed from −80° C. storage, thawed, and placed in a vacuum chamber at room temperature overnight to induce reduction of the monoclonal antibody without the interference of oxygen. After the vacuum hold, the samples were analyzed for protein fragmentation under non-reducing conditions using a BioAnalyzer system (Agilent Technologies) or a LABCHIP® GXII system (PerkinElmer) to detect antibody fragments resulting from the breakage of the antibody's interchain disulfide bonds. […]
# Samples were stored frozen until analyzed. […] After being denatured and the free thiols being capped by NEM, the samples were analyzed using a Perkin Elmer Labchip® GXII (Perkin Elmer, Waltham, Mass.) to perform size fractionation and quantification. Using the Labchip® GXII, the protein and fragments were detected by laser-induced fluorescence and translated into gel-like images (bands) and electropherograms (peaks).
# Reduction potential, i.e. the potential of the molecule to be reduced under anaerobic condition, was measured by subjecting samples to vacuum analysis as described above followed addition of non-reducing sample buffer. […]
# [2] = Antibody aggregation analysis (HP-SEC); conditions: EDTA 9.5, 19, 38 mM or Cystine 4 and 8 mM
# Method: The percent of antibody aggregates was determined using standard size exclusion chromatography (HP-SEC) methods. An Agilent 1200 series system was used with a Tosoh Bioscience TSKgel G3000SW XL column (Tosoh Bioscience LLC, King of Prussia, Pa.) (7.8 mm×300 mm) at 1 mL/min flow rate using a mobile phase buffer of 0.1 M sodium phosphate, 0.1 M sodium sulfate, pH 6.8. The absorbance chromatography at 280 nm was used to quantify the results.
# [3] = Non-reduced GX (NR-GX) analysis of HCCF and purification products; conditions: 2 weeks at 2° C.-8° C., bags without headspace
# Method: Samples were stored frozen until analyzed. Once thawed, 400-600 μL of each sample was transferred to culture tubes and mixed in non-reducing sample buffer containing N-Ethylmaleimide (NEM). After being denatured and the free thiols being capped by NEM, the samples were analyzed using a Perkin Elmer Labchip® GXII (Perkin Elmer, Waltham, Mass.) to perform size fractionation and quantification. Using the Labchip® GXII, the protein and fragments were detected by laser-induced fluorescence and translated into gel-like images (bands) and electropherograms (peaks).
# The high levels of impurities were first detected in the capture product and were carried through the subsequent steps in the process.
# [4] = Free thiol quantitation in HCCF by disulfide mapping mass spectrometry; conditions: 2 mM cystine, 2 week hold, versus starting material
# Method: The amount of free thiol in harvested cell culture fluid was determined by matching predicted masses of disulfide-linked peptides to observed masses from non-reducing Lys-C peptide mapping. Briefly, the sample was denatured and diluted prior to digestion with a serine protease. Following protease digestion, half of each reaction mixture was reduced by the addition of DTT. The digests were separated by RP-HPLC using a C18 column and analyzed using a UV-detector and an on-line mass spectrometer. Disulfide-bond linked peptides are only present in non-reducing runs and will disappear under reducing conditions.
compound,measurement,setting,value
"N[C@@H](CSSC[C@H](N)C(=O)O)C(=O)O [cystine, L-cystine]",reduction potential at the time of harvest of sheared mAb E material,[1],no reduction potential
same,aggregation of sheared mAb E material after 8 days at 2-8° C.,[2],limited the extent of mAb aggregation
same,reduction of mAb B in HCCF by the end of the hold (NR-GX),[3]; 2 mM cystine,reduction had set in
same,reduction of mAb B in HCCF by the end of the hold (NR-GX),[3]; 4 mM cystine,no signs of reduction
same,inter-chain free thiol in HCCF by the end of the hold,[4],higher level of inter-chain free thiol
